Source: publication PMC4730278, “In Vivo Anti-Tumor Activity and Toxicological Evaluations of Perillaldehyde 8,9-Epoxide, a Derivative of Perillyl Alcohol” (International Journal of Molecular Sciences, 2016)

Experiments:
[1] = Biochemical parameters in blood, mice with S-180 tumor cells; type: in vivo, Swiss mice; details: 7 days; for ALT / AST / Creatinine / Urea: mice with S-180 tumor cells
Procedure: (§1) Body weights (n = 10 mice/group) were determined at the first and last days of treatment. Organ weight alterations (n = 10 mice/group), and hematological and biochemical analysis (n = 5 mice/group) were performed on the last day of experimentation. All systemic toxicological analyses were also performed with 4 healthy animal groups, without the inoculation of S-180, (n = 5 mice/group) treated with 5% DMSO (i.p.), 5-FU 25 mg/Kg/day (i.p.), perillaldehyde 8,9-epoxide 100 mg/kg/day (i.p.) and perillaldehyde 8,9-epoxide 200 mg/kg/day for consecutive 7 days.
(§2) Twenty four hours after the seventh treatment day, blood samples of the animals were collected (retro-orbital plexus) with anesthetized mice (1.5%, isoflurane). Immediately after blood collection the animals were euthanized, and their organs (liver, spleen and kidneys) were removed and weighed. The wet mass of each organ was expressed as grams per 100 grams of body mass and compared to the negative control group.
(§3) For evaluation of the effect of perillaldehyde 8,9-epoxide on the biochemical parameters aspartate aminotransferase (AST) and alanine aminotransferase (ALT) enzymatic to investigate liver function alterations, creatinine and urea were measured as renal function parameters. For this test, blood samples of the animals were collected without anticoagulant, centrifuged for 10 min at 3500 rpm and 25 °C to obtain […].
(§4) The Clinical Chemistry® kits (Abbott Architect; C8000; Abbott Laboratories, Wiesbaden, Germany) were used for biochemical evaluation of serum samples.

[2] = test system: three human tumor cell lines (ovarian adenocarcinoma, colon carcinoma, glioblastoma); design: method as in PMID 26197313; details: in vitro; cited from earlier work
[3] = Biochemical parameters in blood, healthy mice; type: in vivo, Swiss mice; details: 7 days
Procedure: as §1, §2, §3, §4

[4] = Body and organ weights, mice transplanted with S-180 tumor cells; type: in vivo, Swiss mice; details: 7 days
Procedure: as §1, §2

[5] = test system: sarcoma 180 tumor cells (S-180); test: In vivo antitumor activity assay, sarcoma 180 tumor growth in mice; design: species or system Swiss mice; details: 7 consecutive days
Procedure: Sarcoma 180 (S-180) tumor cells, were obtained through at the Federal University of Ceará, Brazil and maintained in the abdominal cavities of Swiss mice in their ascitic form by ten days.
The effect on tumor growth in vivo was assessed using S-180 ascites tumor cells, according standard protocol. Ten-day-old S-180 ascites tumor cells (2 × 10^6 cells per 0.5 mL) were inoculated subcutaneously into the right axillary region of animals. After 24 h, the animals were separated into 5 groups (n = 10 mice/group) and subjected to intraperitoneal (i.p.) treatment for 7 consecutive days (once a day). Group 1 consisted of animals treated by intraperitoneal (i.p.) administration of negative control—5% Dimethyl sulfoxide (DMSO); Group 2 consisted of animals treated by i.p. administration of positive control—5-fluorouracil 25 mg/kg/day (5-FU; purity > 99%; Sigma Chemical Co., St. Louis, MO, USA); Group 3 consisted of animals treated by i.p. administration of perillaldehyde 8,9-epoxide at 100 mg/kg/day; Group 4 consisted of animals treated by i.p. administration of perillaldehyde 8,9-epoxide at 200 mg/kg/day; Group 5 consisted of animals treated by i.p. administration of perillyl alcohol at 100 mg/kg/day; Group 6 consisted of animals treated by i.p. administration of perillyl alcohol at 200 mg/kg/day. At 24 h from the last day of treatment, under 1.5% isoflurane inhalation anesthesia, the mice were euthanized, and the tumors were weighed. The inhibition ratio of tumor growth (%) was calculated by the following equation: (%) = [(NC − TG)/NC] × 100, where NC is the average tumor weight of the negative control group and TG is the average tumor weight of the treated group.

[6] = Hematological parameters in blood, healthy mice; type: in vivo, Swiss mice; details: 7 days
Procedure: as §1, §2
(§5) For hematological analyses, an aliquot of blood from each animal was placed in ethylene diamine tetracetic acid (EDTA). Hematological parameters, including the total as well as differential counts of leukocytes, including eosinophils, lymphocytes, neutrophils and monocytes determined by standard manual procedures using optical light microscopy.

[7] = Histopathological and macroscopic analyses of livers, kidneys and spleens; type: in vivo, Swiss mice; details: light microscopy, hematoxylin-eosin; after 7 days i.p. treatment
Procedure: After being weighed and fixed in 10% formaldehyde; tumors, livers, spleens, and kidneys were submitted for assessment macroscopic (size, coloration and hemorrhage), were cut into small pieces and, after that dehydrated in alcohol, diaphanized in xylene and paraffin-embedded. Subsequently, 5-µm-thick histological sections were obtained and stained with hematoxylin and eosin. Histological analyses were performed by light microscopy in order to assess possible damage caused by treatment.

[8] = Body and organ weights, healthy mice; type: in vivo, Swiss mice; details: 7 days
Procedure: as §1, §2

[9] = test system: 4 cancer cell lines (colon carcinoma, ovarian adenocarcinoma, glioblastoma, and leukemia); design: method as in PMID 26197313; details: all of the 4 cell lines studied; cited from earlier work
[10] = Hematological parameters in blood, mice with S-180 tumor; type: in vivo, Swiss mice; details: 7 days; for Differential Count of Leukocytes, Eosinophil / Differential Count of Leukocytes, Lymphocyte / Differential Count of Leukocytes, Monocyte / Differential Count of Leukocytes, Neutrophil / Total Leukocytes: mice with S-180 tumor
Procedure: as §1, §2, §5

[11] = mice with tumor S-180, 100 mg/kg/day i.p.
[12] = mice with tumor S-180, 200 mg/kg/day i.p.

Creatinine ([1]; 100 mg/kg/day i.p.): 0.34 ± 0.01 mg/dL
Urea ([1]; 100 mg/kg/day i.p.): 43.0 ± 1.08 mg/dL
Creatinine ([1]; 200 mg/kg/day i.p.): 0.33 ± 0.02 mg/dL
Urea ([1]; 200 mg/kg/day i.p.): 47.80 ± 2.01 mg/dL
Creatinine ([3]; 100 mg/kg/day i.p.): 0.34 ± 0.01 mg/dL
Urea ([3]; 100 mg/kg/day i.p.): 54.25 ± 3.82 mg/dL
Creatinine ([3]; 200 mg/kg/day i.p.): 0.34 ± 0.01 mg/dL
Urea ([3]; 200 mg/kg/day i.p.): 41.00 ± 4.42 mg/dL
Kidney [4, 11]: 1.27 ± 0.03 g/100 g Body Mass
Liver [4, 11]: 4.84 ± 0.07 g/100 g Body Mass
Spleen [4, 11]: 0.52 ± 0.02 g/100 g Body Mass
Variation Body in Mass [4, 11]: 1.11 ± 0.19 g
Kidney [4, 12]: 1.28 ± 0.03 g/100 g Body Mass
Liver [4, 12]: 4.57 ± 0.09 g/100 g Body Mass
Spleen [4, 12]: 0.49 ± 0.04 g/100 g Body Mass
Variation Body in Mass [4, 12]: -1.58 ± 0.33 g
Differential Count of Leukocytes, Eosinophil ([6]; 100 mg/kg/day i.p.): 0%
Differential Count of Leukocytes, Lymphocyte ([6]; 100 mg/kg/day i.p.): 86.0 ± 1.68 %
Differential Count of Leukocytes, Monocyte ([6]; 100 mg/kg/day i.p.): 1.5 ± 0.86%
Differential Count of Leukocytes, Neutrophil ([6]; 100 mg/kg/day i.p.): 12.5 ± 1.08 %
Total Leukocytes ([6]; 100 mg/kg/day i.p.): 3.12 ± 0.38 * 10^3 Cells/µL
Differential Count of Leukocytes, Eosinophil ([6]; 200 mg/kg/day i.p.): 0%
Differential Count of Leukocytes, Lymphocyte ([6]; 200 mg/kg/day i.p.): 89.5 ± 0.65 %
Differential Count of Leukocytes, Monocyte ([6]; 200 mg/kg/day i.p.): 1.3 ± 0.25%
Differential Count of Leukocytes, Neutrophil ([6]; 200 mg/kg/day i.p.): 9.2 ± 0.85 %
Total Leukocytes ([6]; 200 mg/kg/day i.p.): 2.62 ± 0.47 * 10^3 Cells/µL
Kidney ([8]; 100 mg/kg/day i.p.): 1.15 ± 0.06 g/100 g Body Mass
Liver ([8]; 100 mg/kg/day i.p.): 4.66 ± 0.09 g/100 g Body Mass
Spleen ([8]; 100 mg/kg/day i.p.): 0.25 ± 0.01 g/100 g Body Mass
Variation Body in Mass ([8]; 100 mg/kg/day i.p.): 0.90 ± 0.38 g
Kidney ([8]; 200 mg/kg/day i.p.): 1.17 ± 0.19 g/100 g Body Mass
Liver ([8]; 200 mg/kg/day i.p.): 5.07 ± 0.13 g/100 g Body Mass
Spleen ([8]; 200 mg/kg/day i.p.): 0.37 ± 0.06 g/100 g Body Mass
Variation Body in Mass ([8]; 200 mg/kg/day i.p.): -0.71 ± 0.53 g
effect on total leukocyte count (in words) ([10]; healthy mice and mice with S-180, at the doses tested (100 and 200 mg/kg/day i.p.)): caused leukopenia
Differential Count of Leukocytes, Eosinophil ([10]; 100 mg/kg/day i.p.): 0%
Differential Count of Leukocytes, Lymphocyte ([10]; 100 mg/kg/day i.p.): 73.2 ± 2.17 %
Differential Count of Leukocytes, Monocyte ([10]; 100 mg/kg/day i.p.): 0.6 ± 0.40%
Differential Count of Leukocytes, Neutrophil ([10]; 100 mg/kg/day i.p.): 26.2 ± 5.92 %
Total Leukocytes ([10]; 100 mg/kg/day i.p.): 5.30 ± 0.37 ^# 10^3 Cells/µL
Differential Count of Leukocytes, Eosinophil ([10]; 200 mg/kg/day i.p.): 0%
Differential Count of Leukocytes, Lymphocyte ([10]; 200 mg/kg/day i.p.): 80.6 ± 2.54 %
Differential Count of Leukocytes, Monocyte ([10]; 200 mg/kg/day i.p.): 0.8 ± 0.34%
Differential Count of Leukocytes, Neutrophil ([10]; 200 mg/kg/day i.p.): 18.6 ± 6.18 %
Total Leukocytes ([10]; 200 mg/kg/day i.p.): 6.50 ± 0.65 ^# 10^3 Cells/µL
Structure (SMILES): CC1([C@@H]2CC=C(C=O)CC2)CO1 (stereo partly drawn) [perillaldehyde 8,9-epoxide]
changes in hepatic and renal parameters (AST, ALT, urea, creatinine; in words) ([1]; healthy and S-180 mice, at the doses tested (100 and 200 mg/kg/day i.p.)): does not cause changes in hepatic and renal parameters
ALT ([1]; 100 mg/kg/day i.p.): 35.0 ± 2.2 U/L
AST ([1]; 100 mg/kg/day i.p.): 178.0 ± 5.0 U/L
ALT ([1]; 200 mg/kg/day i.p.): 36.0 ± 3.5 U/L
AST ([1]; 200 mg/kg/day i.p.): 208.3 ± 20.6 U/L
inhibition percentage (GI%) compared with perillyl alcohol [2]: higher inhibition percentage in all cell lines tested
ALT ([3]; 100 mg/kg/day i.p.): 55.25 ± 6.26 U/L
AST ([3]; 100 mg/kg/day i.p.): 100.5 ± 5.97 U/L
ALT ([3]; 200 mg/kg/day i.p.): 47.75 ± 4.64 U/L
AST ([3]; 200 mg/kg/day i.p.): 78.75 ± 3.17 U/L
changes in body or organ masses (in words) ([4]; healthy and S-180 mice, 100 and 200 mg/kg/day i.p.): did not cause changes in body or organ masses
tumor growth inhibition rate ([5]; 100 mg/kg/day i.p.): 38.4%
tumor growth inhibition rate ([5]; 200 mg/kg/day i.p.): 58.7%
Histopathological analyses of the liver, spleen, and kidneys (morphology) [7]: free from any morphological changes
IC50 (median inhibitory concentration able to induce 50% of maximal effect) [9]: less than 4.0 µg/mL
